Test results as given in patent US9358267B2, “High purity lipopeptides” (Cubist Pharmaceuticals LLC, priority 2000, dated 2016).

Tests used:
[1] = critical micellar concentration (cmc) of daptomycin; assay type: physicochemical
Source text: Micelle formation causes changes in several bulk physical properties of a solution including changes in osmotic pressure, turbidity, electrical conductance, surface tension, co-ion and counterion activities (in the case of ionic, amphipathic molecules), refractive index, UV and NMR spectra, partial molar volume, viscosity, diffusion coefficient and dye solubilization. The cmc can be determined by measuring one or more of these micelle-dependent physical properties as a function of concentration of the amphipathic molecule. The size and shape of micelles can be determined by dynamic laser light scattering, ultracentrifugation, viscosity and/or low-angle X-ray scattering experiments. Micelles can also exist in liquid crystal phases.
In another embodiment of the invention, the pH of a solution comprising a lipopeptide is manipulated to influence the cmc of the lipopeptide. In a preferred embodiment, the lipopeptide is daptomycin or a daptomycin-related molecule, such as those described supra. In an even more preferred embodiment, the lipopeptide is daptomycin. In one embodiment, the pH is manipulated so that the concentration of a lipopeptide is higher than the cmc at one pH and is lower than the cmc at another pH. For instance, for daptomycin, the cmc at pH 4.0 in water at a temperature of 20-25° C. was much lower than at pH 6.0 or 7.5. […]

[2] = size of daptomycin micelles by light scatter (Zetasizer); assay type: physicochemical; settings: for micelle size: 1 mg/mL, pH approximately 4.0 in water, light scatter
Method: The daptomycin micelles have an average size of 5.4 nm (54 A).
Daptomycin micelles were produced using daptomycin at a concentration of 1.0 mg/mL in water at pH 4.0 at 25° C. The size of a daptomycin micelle was measured using a Zetasizer™ (Malvern Instruments, Model 3000 HS). The count rate of 36.3, the cell type was a capillary cell, the detection angle (deg) was 90°, and the wavelength (nm) was 633.

[3] = system: gram-positive organisms (susceptible and resistant strains); assay: in vitro antibacterial activity (MIC); assay type: cell-based
Method: In addition, the minimum inhibitory concentration (MIC) value for daptomycin against susceptible strains is typically 4-fold lower than that of vancomycin. […] Thus, in a preferred embodiment, purified daptomycin, lipopeptide antibiotic, or pharmaceutical compositions thereof are administered according to the methods of this invention to a patient in need of rapidly acting antibiotic therapy.

CCCCCCCCCC(=O)N[C@@H](Cc1c[nH]c2ccccc12)C(=O)N[C@H](CC(N)=O)C(=O)N[C@@H](CC(=O)O)C(=O)N[C@@H]1C(=O)NCC(=O)N[C@@H](CCCN)C(=O)N[C@@H](CC(=O)O)C(=O)N[C@H](C)C(=O)N[C@@H](CC(=O)O)C(=O)NCC(=O)N[C@H](CO)C(=O)N[C@@H]([C@H](C)CC(=O)O)C(=O)N[C@@H](CC(=O)c2ccccc2N)C(=O)O[C@@H]1C [daptomycin]
aggregation state (monomeric or micellar) ([1]; 150 mg/mL daptomycin, pH 6.5, 150 mM to 300 mM NaCl, 4° C.): monomeric | critical micellar concentration (cmc) ([1]; pH 4.0 in water, 20-25° C.): approximately 400 μg/mL | diameter of the micelle ([2]; 1.0 mg/mL in water, pH 4.0, 25° C., Zetasizer): 54 A | micelle size [2]: 5.4 nm | micelle size ([2]; listed as Daptomycin): approximately 5.4 nm | antibacterial activity against classically resistant strains relative to classically susceptible strains ([3]; in vitro experiments): comparable | MIC, fold lower than that of vancomycin ([3]; susceptible strains): ~4 fold
